Like-named read-outs stand apart in the source and are kept apart here.
Legend:
[1] = system: A549; experiment: Tumor cell anti-proliferation assay (CTG assay), A549; assay type: cell-based; conditions: A549, 3-days incubation
Protocol: (§1) Assay 3: Tumor Cell Anti-Proliferation Assay (CTG Assay)
(§2) Tested tumor cell lines (MIA PaCa-2, NCI-H358, and A549) were seeded to the 96-well plate for overnight, then cells were treated with the test compound at 9 serially diluted concentrations in triplicate. After 3-days incubation with the test compound, the CTG assay was performed to evaluate the IC50. The 3 cell lines were tested in the same manner. Cisplatin were used as the positive control.
(§3) Day −1: Cell Plating for Cell Lines
(§4) 1. Adjust the cell concentration to the appropriated number with the medium, and for each well of a 96-well plate, add 90 μl cell suspensions (Cell concentration will be adjusted according to the data base or density optimization assay). 2. Incubate the plates for overnight in humidified incubator at […] with 5% CO2.
(§5) Day 0: T0 Plate Reading and Compound Treatment
(§6) 3. Add 10 μL culture medium to each well of plate A for T0 reading.
(§7) 4. Equilibrate the plate and its content at RT for approximately 30 min.
(§8) 5. Add 50 μL CellTiter-Glo® Reagent to each well for T0 reading.
(§9) 6. Mix contents for 2 minutes on an orbital shaker to facilitate cell lysis.
(§10) 7. Allow the plate to incubate at room temperature for 10 minutes to stabilize the luminescent signal. Note: Uneven luminescent signal within standard plates can be caused by temperature gradients, uneven seeding of cells or edge effects in multiwall plates.
(§11) 8. Place a black BackSeal sticker to the bottom of each plate.
(§12) 9. Record luminescence using an Envision Multi Label Reader.
(§13) 10. Dilute the test compound and the positive control (Cisplatin). Add 10 μL of 10× test compound working solutions into the corresponding wells. Incubate the test plates in the humidified incubator at 37° C. with 5% Co2.
(§14) Day 3: Plate Reading for 3-Day Assay
(§15) 11. Monitor under the microscope to make sure that the cells in control wells are healthy.
(§16) 12. After three days incubation, add 50 μL CellTiter-Glo® Reagent to each well.
(§17) 13. Mix contents for 2 minutes on an orbital shaker to facilitate cell lysis.
(§18) 14. Allow the plate to incubate at room temperature for 10 minutes to stabilize the luminescent signal.
(§19) 15. Note: Uneven luminescent signal within standard plates can be caused by temperature gradients, uneven seeding of cells or edge effects in multiwall plates.
(§20) 16. Place a black BackSeal sticker to the bottom of each plate.
(§21) 17. Record luminescence using an Envision Multi Label Reader.
(§22) In order to calculate IC50, a dose-response curve was fitted using nonlinear regression model with a sigmoidal dose response. The formula of the surviving rate is shown below, and the IC50 was automatically produced by GraphPad Prism 5.0.
(§23) The surviving rate […]=(LumTest compound−LumMedium control)/(LumNone treated-LumMedium control)×100%.
(§24) LumNone treated-LumMedium control is set as 100% o and LumMedium control is set as […]. T0 value will be presented as percentage of LumNone treated.

[2] = system: MIA PaCa-2; experiment: Tumor cell anti-proliferation assay (CTG assay), MIA PaCa-2; assay type: cell-based; conditions: MIA PaCa-2, 3-days incubation, CTG, read-out: IC50 MIA PaCa-2
Protocol: as §1, §2, §3, §4, §5, §6, §7, §8, §9, §10, §11, §12, §13, §14, §15, §16, §17, §18, §19, §20, §21, §22, §23, §24

[3] = Pharmacokinetics study in plasma of ICR mice, intravenous or oral administration; assay type: in vivo; conditions: male ICR mice
Protocol: The purpose of this study is to determine the pharmacokinetics parameters in plasma of compounds in ICR mice following intravenous or oral administration.
The formulations were based on sponsor's recommendation and will be prepared by the Testing Facility.
Species and Strain: ICR Mice (Male)
Source: Sino-British SIPPR Lab Animal Ltd, Shanghai
Number of Animals: Ordered: 8; Needed: 6
The test article was be administered via a single IV or PO dosing.
IV group: Post-dose at 5 min, 15 min, 30 min, 1 h, 2 h, 4 h, 8 h and 24 h.
PO group: Post-dose at 15 min, 30 min, 1 h, 2 h, 4 h, 6 h, 8 h and 24 h.
30˜40 μL/sample. Samples were be placed in tubes containing heparin sodium and stored on ice until centrifuged.
The PK blood samples were centrifuged at approximately 6800G for 6 minutes at 2-8° C. and the resulting plasma was transferred to appropriately labeled tubes within 2 hour of blood collection/centrifugation and stored frozen at approximately −70° C.
Method development and biological samples analysis for the test articles (Sodium heparin anticoagulant) were be performed by Testing Facility by means of LC-MS/MS. The analytical results were be confirmed using quality control samples for intra-assay variation. The accuracy of >66.7% of the quality control samples were be between 80-120% of the known value(s).
Pharmacokinetics Analysis
Standard set of parameters including Area Under the Curve (AUC(0-t) and AUC(0-∞)), elimination half-live (T1/2), maximum plasma concentration (Cmax) and time to reach maximum plasma concentration (Tmax) and other parameters were be calculated using Phoenix WinNonlin 7.0 (Pharsight, USA) by the Study Director.

[4] = system: NCI-H358; experiment: Tumor cell anti-proliferation assay (CTG assay), NCI-H358; assay type: cell-based; conditions: NCI-H358, 3-days incubation, CTG, read-out: IC50 NCI-H358
Protocol: as §1, §2, §3, §4, §5, §6, §7, §8, §9, §10, §11, §12, §13, §14, §15, §16, §17, §18, §19, §20, §21, §22, §23, §24

[5] = molecular target: T1, KRAS G12C (Homo sapiens, UniProt P01116, G12C); experiment: KRAS GDP FI assay; assay type: biochemical; conditions: kinetic reading Ex580/Em620 for 120 min
Source text: Assay 2: KRAS GDP FI Assay
1. Prepare compound dilution plate.
2. Transfer Inhibitor/DMSO to assay plate by Echo.
3. Prepare 1× assay buffer.
4. Prepare KRAS G12C mix & SOS1 mix & GTP mix & detection reagent mix.
5. Add KRAS G12C mix, SOS1 mix, GTP mix.
6. Add detection reagent mix to assay plate.
Target sequence in this assay (P01116 1-188 isoform P01116-2 G12C): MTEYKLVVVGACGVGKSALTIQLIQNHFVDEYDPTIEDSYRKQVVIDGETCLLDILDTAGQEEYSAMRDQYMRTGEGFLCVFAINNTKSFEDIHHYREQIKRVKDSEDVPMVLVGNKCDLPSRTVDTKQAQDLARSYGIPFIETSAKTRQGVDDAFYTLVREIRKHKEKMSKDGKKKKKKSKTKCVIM

[6] = molecular target: T1, KRAS G12C; experiment: KRAS G12C nucleotide exchange assay (SOS1-mediated, mant-GDP fluorescence); assay type: biochemical; set-up: KRas(1-169) G12C protein; conditions: 15 min pre-incubation
Protocol: Assay 1: KRAS G12C Nucleotide Exchange Assay
1×Loading buffer: 20 mM HEPES, pH 7.5, 50 mM NaCl, 0.5 mM MgCl2, 1 mM DTT, 5 mM EDTA
1×Equilibration buffer: 20 mM HEPES, pH 7.5, 150 mM NaCl, 1 mM MgCl2, 1 mM DTT
1×Assay buffer: 20 mM HEPES, pH 7.5, 150 mM NaCl, 1 mM MgCl2, 0.01% Tween-20, 1 mM DTT
2. Load Mant GDP to KRAS G12C:
a. A mixed solution of 100 µL mant GDP and KRAS G12C was prepared with 1×loading buffer: 60 um KRAS G12C, 600 um […], incubated at room temperature for 60 minutes, and the reaction was carried out in dark conditions.
b. Add 1 uL 1 m MgCl2 (final concentration 10 mm) to stop the reaction, mix the solution upside down in the centrifuge tube, centrifugate for 3-5 seconds, and incubate at room temperature for 30 minutes.
c. At the same time of incubation for 30 minutes, balance nap-5 column with 10 ml ix equipment buffer until no liquid drops.
d. Drop the mixed solution of 100 uL mant GDP and KRAS G12C into the center of nap-5 column. After the sample completely enters nap-5 column, add 400 µL 1× equipment buffer until no liquid drops.
e. Add 500 ul 1× equipment buffer for elution and collect eluant.
f. Determination of KRAS G12C mant GDP with Bradford protein quantitative Kit.
3. Nucleotide Exchange Experiment:
a. Transfer 50 NL DMSO/compound to 384 well plate with echo550.
b. 10 uL enzyme mix was added into 384 pore plate and incubated with DMSO/compound for 15 min.
c. Initial reaction with 10 µL Sos1/GTP mix.
d. Immediately after reaction, read ex360/em440 fluorescence value in kinetic mode with Nivo.
a. Use Graphpad software to process data and draw pictures.
b. K value is obtained in Graphpad software by fitting One phase experimental deck model.
c. Z′=1-3*(SdKmax+SdKmin)/(AveKmax−AveKmin)
d. In % is calculated by the following formula:
Inh%=(Kmax−Ksample)/(Kmax−Kmin)*100
Target sequence in this assay (P01116 1-169 isoform P01116-2 G12C): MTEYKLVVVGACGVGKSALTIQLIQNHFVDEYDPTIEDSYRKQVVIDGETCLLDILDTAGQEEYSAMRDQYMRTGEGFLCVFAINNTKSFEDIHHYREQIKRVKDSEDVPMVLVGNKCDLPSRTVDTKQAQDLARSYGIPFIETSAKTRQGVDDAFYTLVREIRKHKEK

[7] = mouse, 1 mg/kg, IV, 1 mpk, plasma
[8] = mouse, 10 mg/kg, PO, 10 mpk, fasted, plasma

Row | Structure (SMILES) | IC50 ([1]; Homo sapiens, 72 h) | IC50 ([2]; Homo sapiens, MIA PaCa-2, 72 h) | IC50 [4] | IC50 [1] | IC50 [2] | IC50 ([4]; Homo sapiens, NCI-H358, 72 h) | IC50 [6] | further results
1 | C=CC(=O)N1C[C@H](C)N(c2nc(OC[C@@H]3CCCN3C)nc3c(=O)n(-c4cccc5cccc(Cl)c45)c(C(F)(F)F)nc23)[C@@H](C)C1 (single isomer, unassigned) [Example 29-b] | > 10000 nM | 906 nM | 28.6 nM |  |  |  |  | F ([3]; PO 10 mpk vs IV 1 mpk): 26.74%; AUC [3, 7]: 0.993 µM·h; C0 [3, 7]: 659 nM; Vd [3, 7]: 2.97 L/kg; clearance [3, 7]: 25.7 mL/min/kg; half-life [3, 7]: 1.59 h; AUC [3, 8]: 2.58 µM·h; Cmax [3, 8]: 729 nM; Tmax [3, 8]: 0.42 h; half-life [3, 8]: 2.39 h; IC50 [5]: 127 nM
2 | C=CC(=O)N1C[C@H](C)N(c2nc(OC[C@@H]3CCCN3C)nc3c(=O)n(-c4cccc5cccc(F)c45)c(C(F)(F)F)nc23)[C@@H](C)C1 (single isomer, unassigned) [Example 34-a] | > 10000 nM | 1230 nM | 202 nM |  |  |  |  | 
3 | C=CC(=O)N1C[C@H](C)N(c2nc(OC[C@@H]3CCCN3C)nc3c(=O)n(-c4cccc5cccc(F)c45)c(C(F)(F)F)nc23)[C@@H](C)C1 (single isomer, unassigned) [Example 34-b] |  |  | 82 nM | > 10000 nM | 679 nM |  |  | 
4 | C=CC(=O)N1C[C@H](C)N(c2nc(OC[C@@H]3CCCN3C)nc3c(=O)n(-c4cc(OC)cc5ccccc45)c(C(F)(F)F)nc23)[C@@H](C)C1 (single isomer, unassigned) [Example 35-a] | > 10000 nM |  | 1180 nM |  | 2650 nM |  |  | 
5 | C=CC(=O)N1C[C@H](C)N(c2nc(OC[C@@H]3CCCN3C)nc3c(=O)n(-c4cc(OC)cc5ccccc45)c(C(F)(F)F)nc23)[C@@H](C)C1 (single isomer, unassigned) [Example 35-b] |  |  | 206 nM | > 10000 nM | 916 nM |  |  | 
6 | N.N.[Cl][Pt][Cl] [Cisplatin, reference compound] |  |  | 25000 nM | 31100 nM | 14300 nM |  |  | 
7 | Cc1nc2c(N3CCN[C@@H](CC#N)C3)nc(OC[C@@H]3CCCN3C)nc2c(=O)n1-c1cccc2ccccc12 [Compound 2, 2-((S)-4-(6-methyl-2-(((S)-1-methylpyrrolidin-2-yl)methoxy)-7-(naphthalen-1-yl)-8-oxo-7,8-dihydropyrimido[5,4-d]pyrimidin-4-yl)piperazin-2-yl)acetonitrile] | > 5000 nM | 642 nM |  |  |  | 1340 nM | 690 nM | 
8 | C=CC(=O)N1CCN(c2nc(OC[C@@H]3CCCN3C)nc3c(=O)n(-c4cccc5cccc(Cl)c45)c(C)nc23)C[C@@H]1CC#N [Compound 4, 2-((S)-1-acryloyl-4-(7-(8-chloronaphthalen-1-yl)-6-methyl-2-(((S)-1-methylpyrrolidin-2-yl)methoxy)-8-oxo-7,8-dihydropyrimido[5,4-d]pyrimidin-4-yl)piperazin-2-yl)acetonitrile] | > 5000 nM | 504 nM |  |  |  | 476 nM | 560 nM | 
9 | C=CC(=O)N1CCN(c2nc(OC[C@@H]3CCCN3C)nc3c(=O)n(-c4cccc5cccc(Cl)c45)c(=O)[nH]c23)C[C@@H]1CC#N [Compound 19, 2-((S)-1-acryloyl-4-(7-(8-chloronaphthalen-1-yl)-2-(((S)-1-methylpyrrolidin-2-yl)methoxy)-6,8-dioxo-5,6,7,8-tetrahydropyrimido[5,4-d]pyrimidin-4-yl)piperazin-2-yl)acetonitrile] | > 5000 nM | > 5000 nM |  |  |  | > 5000 nM | 370 nM | 
10 | C=CC(=O)N1CCN(c2nc(OC[C@@H]3CCCN3C)nc3c(=O)n(-c4cccc5cccc(Cl)c45)c(C(F)(F)F)nc23)C[C@@H]1CC#N [Example 31, 2-((S)-1-acryloyl-4-(7-(8-chloronaphthalen-1-yl)-2-(((S)-1-methylpyrrolidin-2-yl)methoxy)-8-oxo-6-(trifluoromethyl)-7,8-dihydropyrimido[5,4-d]pyrimidin-4-yl)piperazin-2-yl)acetonitrile] | > 10000 nM | 124 nM |  |  |  |  | 446 nM | IC50 [5]: 116 nM
